Columns and labels:
Format in all cases: cell-based
A375 melanoma cells [1] = assay: 3H-cholesterol efflux assay; settings: BLT-1 1 μM; acceptors 500 nM
Experimental: A375 cells were cultured in DMEM containing 1 μCi/mL [1,2,-^3H] cholesterol (Perkin-Elmer) overnight to label the cellular cholesterol pool. Cells were then washed in PBS and resuspended in serum free media. Human HDL or HDL NPs were added to the culture media and allowed to incubate for 6 hours. Cell culture media was then collected and subjected to liquid scintillation counting. The percentage of cholesterol efflux was determined by using the formula counts media/(counts cells+counts media)×100. Efflux of cholesterol in the absence of an acceptor was also measured and interpreted along with other results.

GFP-SR-B1 = biological target: T1, GFP-SR-B1 (Homo sapiens, UniProt Q8WTV0); assay: GFP-SR-B1 clustering and dynamics (confocal imaging, computer vision analysis); settings: A375 cells expressing GFP-SR-B1, 24 hrs treatment
T1 construct: expressed in transfected cells
T1 sequence (Q8WTV0 1-552): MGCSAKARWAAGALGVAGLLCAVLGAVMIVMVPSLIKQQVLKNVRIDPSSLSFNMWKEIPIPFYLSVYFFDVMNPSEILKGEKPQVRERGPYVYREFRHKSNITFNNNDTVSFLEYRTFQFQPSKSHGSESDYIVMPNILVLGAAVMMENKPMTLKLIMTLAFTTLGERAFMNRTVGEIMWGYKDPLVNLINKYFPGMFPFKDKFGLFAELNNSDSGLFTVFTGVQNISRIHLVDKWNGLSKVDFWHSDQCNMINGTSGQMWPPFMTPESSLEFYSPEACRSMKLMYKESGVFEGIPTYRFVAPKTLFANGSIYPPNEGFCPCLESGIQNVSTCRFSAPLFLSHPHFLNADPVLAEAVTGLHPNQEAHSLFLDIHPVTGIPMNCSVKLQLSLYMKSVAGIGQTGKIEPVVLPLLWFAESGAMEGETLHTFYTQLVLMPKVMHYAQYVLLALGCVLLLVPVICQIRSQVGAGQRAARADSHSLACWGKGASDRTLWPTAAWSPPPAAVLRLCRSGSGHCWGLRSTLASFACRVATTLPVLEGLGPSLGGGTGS
Source text: A semi-automated approach using ImageJ software was employed to identify the areas of GFP-SR-B1 in the images. After background subtraction, an unsharp mask filter with a large radius was applied to locally enhance contrast. Manual thresholding of filtered images was then used to generate a segment mask, which could be overlaid on the original, background subtracted image to facilitate measurement of domain parameters such as area and mean intensity. […]
To calculate the linearity of the motion, we introduced a parameter rho (FIG. 3C), which is calculated as the ratio between the head-to-tail (first point to the end point) trajectory distance divided by the total distance traveled by fluorescent domains. […]
Fluorescence microscopy was performed using an A1R confocal microscope with assistance from the Northwestern University Center for Advanced Microscopy. Images were analyzed using NIS Elements (Nikon) and ImageJ (NIH) software. Live cell confocal fluorescence microscopy to assess lipid raft dynamics was performed with a Nikon Eclipse T1 microscope equipped with an Andor iXon Ultra 897 camera and analyzed using Metamorph software (Molecular Devices).

A375 melanoma cells [2] = assay: Exosome uptake assay (DiI-labeled exosomes, flow cytometry / fluorescence microscopy); settings: 24 hrs treatment
Experimental: A375 melanoma exosomes were isolated from conditioned media using differential ultracentrifugation [Thery et al. 2006]. In brief, cells were cultured in exosome deficient media for 72 hours at which point the cell culture media was collected and centrifuged at 2000×g to remove dead cells and debris. Next, larger vesicles and cell debris were removed by centrifugation at 10,000×g for 30 minutes. Exosomes were then pelleted by centrifugation at 100,000×g for 70 minutes, and subsequently washed in PBS by another 100,000×g centrifugation step for 70 minutes. Exosomes were re-suspended in PBS. Protein concentration of exosomes was analyzed by BCA Protein assay (Thermo Scientific). […] In order to test if HDL NPs quenched exosome fluorescence, we incubated HDL NPs with fluorescently labeled exosomes for 4 hours and then measured the fluorescent signal.
The cellular uptake of exosomes was measured by fluorescence microscopy and flow cytometry after cell treatments. […] For fluorescence microscopy experiments, cells were plated on coverslips coated with 0.1% gelatin. Exosome uptake was measured over the course of 24 hours using a BD LSR Fortessa flow cytometer (Robert H. Lurie Comprehensive Cancer Center Flow Cytometry Core) or a Nikon A1R fluorescence microscope (Northwestern University Nikon Imaging Facility).

Compound: CCCCCCC1CCCC1=NNC(N)=S (stereo not drawn) [BLT-1, Blocks Lipid Transport 1]
- 3H-cholesterol efflux to hHDL and HDL NP with BLT-1 treatment (A375 melanoma cells [1]): reduced efflux to both hHDLs and HDL NPs
- clustering of GFP-SR-B1 (GFP-SR-B1): did not result in the inhibition of exosome uptake or clustering of the receptor
- inhibition of cellular exosome uptake (A375 melanoma cells [2]): did not result in the inhibition of exosome uptake

— US10413565B2, “Nanostructures for modulating intercellular communication and uses thereof” (Northwestern University, priority 2014, dated 2019)
